Data set [1] can be described thus: Cytotoxicity in H1 cells (cell count). The data set is classed as cell-based. To be noted: human. On the procedure: (§1) Inhibitory effect of compounds on EBV: The CD50 was performed by
exposing H1 cells to different concentrations of the compounds in normal
growth medium at 37° C. for 72 hours; the cells were then counted
and compared with controls. H1 cells were treated for 5 days and the […]

A further data set concerns EBV. Description: Inhibitory effect of compounds on EBV (virus production in H1 cells, bioassay of EBV DP activity in Raji cells). It is filed as cell-based, Epstein-Barr virus. The conditions noted are these: for Therapeutic Index (CD50/ID90): CD50 in H1 cells / ID90 for EBV; for IC90: human gammaherpesvirus 4, Raji, 120 h, EBV, H1 cells treated for 5 days, bioassay, read-out: ID90 (the source's name). On the procedure: (§2) H1 cells were maintained in […] growth for two days prior to the initiation of treatment. The cells were centrifuged at 600 g for 10 min. at room temperature to separate them from the medium containing pre-existing virus particles. The H1 cells were seeded in 24 well plates at a density of 1×10^5 cells per well in 2 ml of fresh medium with or without drug and incubated at 37° C. for 5 days. The medium containing virion was saved and used for evaluating the inhibitory effect of drugs on virus production and infectivity by use of a bioassay. The virion were pelleted from the cell free medium by centrifugation at 45,000 rpm for 90 min. in a SW-50 Ti rotor (Beckman). The virion were resuspended in 1 ml growth medium and then used to infect 1×10^6 Raji cells for 48 hours. Since the level of EBV DP activity in Raji cells post superinfection is proportional to the number of virions added, the EBV specific DP activity induced was able to be measured. The inhibitory drug effect was calculated by comparing the EBV DP activity to multiple dilution controls.
as §1
and compared with controls. H1 cells were treated for 5 days and the
ID90 was determined by bioassay.

The next data set concerns HBV. Put plainly: Biological activity against HBV in 2.2.15 cells (HBV DNA, Southern analysis). The data set is classed as cell-based. The conditions noted are these: Hepatitis B virus, 144 h, read-out: Anti-HBV Activity ID50. On the procedure:
Human hepatoma cells with HBV (2.2.15 cells) were used in the assay. These cells were grown to confluence in minimal essential medium with 10% fetal bovine serum. The media was changed at 3-day intervals. At confluence the treatment with the drugs was initiated and then continued for three days. Another addition of the same concentration of the drug was given at this point after removal of the media from the cultures and cultures maintained for an additional period of 3 days. The medium after the 6-day treatment was harvested and the viral particles precipitated by the polyethylene glycol method. The particles were subsequently digested and then processed for Southern analysis. The blots were hybridized to an HBV-specific probe and viral DNA amounts assessed in comparison to DNA levels from cultures not treated with the drugs. The genomic DNA was digested with Hind III and subjected to Southern analysis. Levels of the episomal DNA were determined in relation to the integrated HBV DNA. The drug concentrations that cause 50% inhibition of the DNA (ID50) as compared to the controls were calculated.

In data set [2] the test system is mitochondrial DNA content in H1 cells. Description: Mitochondrial DNA content of H1 cells (slot blot assay). The data set is classed as cell-based, human. The conditions noted are these: 1 mM, 6 days. How it is done:
as §2
Slot Blot Assay--The amount of mitochondrial DNA was measured by the slot blot method (2). […] The amount of mitochondrial DNA in the treated and non-treated H1 cells was quantified by densitometer (LKB Ultroscan XL).

A short description of data set [3]: Clearance of L-(-)-FMAU from plasma after oral administration. The data set is classed as in vivo. The conditions noted are these: mice, 10 or 50 mg/kg. How it is done: (§3) The clearance of L-(-)-FMAU from the plasma and liver of mice after oral administration was evaluated. Mice were […] with L-(-)-FMAU which was tritium labeled (radiospecificity of […]).
(§4) FIG. 11 is a graph of the plasma concentration of L-(-)-FMAU in mice after oral administration over time, and FIG. 12 is a graph of the concentration of L-(-)-FMAU in mouse liver after oral administration over time (cross, 10 mg/kg administered bid (bi-daily) for 30 days prior to pharmacokinetic study and then study carried out on day thirty-one on administration of same concentration; dark circle, 50 mg/kg administered bid for 30 days prior to study and then study carried out on day thirty-one on administration of same concentration; open circle, 50 mg/kg administered for the first time on the first day of the study).
(§5) At the times indicated (see FIGS. […]) the mice were bled from their retro-orbital sinus using heparinized capillaries. The plasma was extracted with trichloroacetic acid and neutralized with freon/trioctylamine. Supernatants were directly counted and the concentration calculated.

The nature of data set [4]: Clearance of L-(-)-FMAU from liver after oral administration. The data set is classed as in vivo. To be noted: mice, 10 or 50 mg/kg. On the procedure:
as §3, §4, §5

Data set [5] in a line: Toxicity in BDF1 female mice (body weight over thirty days). The data set is classed as in vivo. To be noted: 10 mg/kg and 50 mg/kg bid. On the procedure:
FIG. 13a illustrates the change in body weight over thirty days of control BDF1 female mice. FIGS. 13b and 13c illustrate the change in body weight over thirty days of BDFI female mice dosed with 10 mg/kg (13b) and 50 mg/kg (13c) bid of L-(-)-FMAU. The body weight presented represents the mean and standard deviation of that of five to seven mice.

Data set [6] in a line: Clinical chemistry of mouse plasma after L-(-)-FMAU treatment. It is filed as in vivo. The conditions noted are these: 10 or 50 mg/kg bid, thirty days. On the procedure:
FIGS. 14-20 provide the clinical chemistry of mouse plasma after administration of L-(-)-FMAU at 10 mg/kg (three mice) or 50 mg/kg (three mice) bid for thirty days.

Setting [7] is: Table I, read-out: (H1 cells) CD50.
[8] abbreviates: 37° C., 72 hours, Table 2, read-out: CD50.

Molecules are shown by their SMILES. Where two headings read alike, the source gives them in different places.

Turning to `CCc1cn([C@@H]2O[C@H](CO)[C@@H](O)[C@@H]2F)c(=O)[nH]c1=O` [D-FEAU], in data set [1] (setting [7]), the CC50 at 72 h is 2000 µM. The “Therapeutic Index (CD50/ID90)” value with EBV stood at 2000.
Take `O=C(O)P(=O)(O)O` [PFA]: the CC50 at 72 h in data set [1] (setting [8]) was found to be 1200 ± 100 µM. The “Therapeutic Index (CD50/ID90)” value in the data set with EBV is on record as 16.
Regarding `O=c1[nH]c(=O)n([C@H]2O[C@@H](CO)[C@H](O)[C@H]2F)cc1I` [L-FIAU, 2'-fluoro-5-iodo-β-L-arabinofuranosyluridine], in data set [1] (setting [8]), the CC50 at 72 h was found to be 240 ± 20 µM. Also, in the data set on EBV, the “Therapeutic Index (CD50/ID90)” value was found to be 12 and the IC90 is 20 ± 4 µM.
The matching figures for `Nc1nc(=O)n([C@@H]2O[C@H](CO)[C@@H](O)[C@@H]2F)cc1I` [D-FIAC]: 125 ± 15 µM, 25 and 5 ± 0.5 µM.
With `Nc1nc2c(ncn2COC(CO)CO)c(=O)[nH]1` [DHPG], in data set [1] (setting [8]), the CC50 at 72 h stood at 75 ± 6 µM. For the same molecule, in the data set on EBV, the “Therapeutic Index (CD50/ID90)” value is recorded as 15.
Take `O=c1[nH]c(=O)n([C@@H]2O[C@H](CO)[C@@H](O)[C@@H]2F)cc1I` [D-FIAU]: in data set [1] (setting [8]), the CC50 at 72 h is 20 ± 4 µM. Besides, in the data set with EBV, the “Therapeutic Index (CD50/ID90)” value worked out at 40 and the IC90 is 0.5 ± 0.05 µM.
`Cc1cn([C@@H]2O[C@H](CO)[C@@H](O)[C@@H]2F)c(=O)[nH]c1=O` [D-FMAU]: the IC50 with HBV was 2 µM. In addition, in data set [1] (setting [7]), the CC50 at 72 h worked out at 50 µM. In the data set on EBV, the “Therapeutic Index (CD50/ID90)” value was 50.
As to `Nc1nc2c(ncn2COCCO)c(=O)[nH]1` [ACV], in data set [1] (setting [8]), the CC50 at 72 h stood at 1000 ± 75 µM. The “Therapeutic Index (CD50/ID90)” value in the data set on EBV was determined as 20.
As to `CCc1cn([C@H]2O[C@@H](CO)[C@H](O)[C@H]2F)c(=O)[nH]c1=O` [L-FEAU, 2'-fluoro-5-ethyl-β-L-arabinofuranosyluridine], in data set [1] (setting [7]), the CC50 at 72 h was found to be 900 µM. Further, in the data set on EBV, the “Therapeutic Index (CD50/ID90)” value amounted to 15 and the IC90 was found to be 60 ± 11 µM.
In the case of `Cc1cn([C@H]2O[C@@H](CO)[C@H](O)[C@H]2F)c(=O)[nH]c1=O` [L-FMAU, 2'-fluoro-5-methyl-β-L-arabinofuranosyluridine], the IC50 in the data set on HBV worked out at 0.1 µM. Besides, in data set [1] (setting [7]), the CC50 at 72 h was 1000 µM. Also, the “Therapeutic Index (CD50/ID90)” value in the data set on EBV is on record as 200. Also, in data set [2], the “Inhibition of mitochondrial DNA content” value is “No inhibition of mitochondrial DNA content in H1 cells was observed”. Besides, in data set [3], the Clearance from plasma result is “substantially cleared from both plasma and liver after four hours”; the “Time of peak concentration in plasma” value is recorded as “approximately one”. In addition, in data set [4], the Clearance from liver result is “substantially cleared from both plasma and liver after four hours”; the “Time of peak concentration in liver” value was “approximately one”. Moreover, in data set [5], the “Change in body weight” value is reported as “did not appear to significantly affect the weight of the mice over thirty days” and the Tolerability result is listed as “well tolerated”. In data set [6], the “ALT (SGPT) in mouse plasma” value was “With the exception of mouse 50-2 (for both SGOT and SGPT) and mouse 10-2 (for SGOT only), the enzyme levels of the treated mice are not different from those of the control mice”; the “AST (SGOT) in mouse plasma” value is “With the exception of mouse 50-2 (for both SGOT and SGPT) and mouse 10-2 (for SGOT only), the enzyme levels of the treated mice are not different from those of the control mice”; the “Creatinine in mouse plasma” value is given as “With the exception of mouse 50-2, the creatinine levels of the treated mice are not different from those of the control mice”; the “Lactic acid in mouse plasma” value was “not significantly differnt from those of the control mice”. The “Lactic dehydrogenase in mouse plasma” value in data set [6] was “not significantly differnt from those of the control mice”. In data set [6] (normal human level 30-114 U/L), the “Alkaline phosphatase in mouse plasma” value is recorded as “somewhat higher than the normal human level”. Further, the “Total bilirubin in mouse plasma” value in data set [6] (normal human range less than 1.2 mg/dL) is recorded as “fall within the normal human range”.
On to `Nc1nc(=O)n([C@H]2O[C@@H](CO)[C@H](O)[C@H]2F)cc1I` [L-FIAC, 2'-fluoro-5-iodo-β-L-arabinofuranosylcytosine], for which, in data set [1] (setting [8]), the CC50 at 72 h turned out to be 400 ± 35 µM. Also, in the data set on EBV, the “Therapeutic Index (CD50/ID90)” value is recorded as over 40 and the IC90 was under 10 µM.
Consider `Nc1nc2c(ncn2CCC(CO)CO)c(=O)[nH]1` [PCV], for which the CC50 at 72 h in data set [1] (setting [8]) was determined as 500 ± 55 µM. In addition, in the data set on EBV, the “Therapeutic Index (CD50/ID90)” value amounted to 25.

The record behind these values is patent US5753789A, “Oligonucleotides containing L-nucleosides” (priority 1996, dated 1998).
